One data set has as its system Caco-2 cultures. Nature of the data set: MTS assay on Caco-2 cultures. It counts as cell-based, human. Particulars: 10 µM. The protocol:
The pure compounds 5, 6, 10, 13 and 14 were added into the Caco-2 cultures at a final concentration of 10 µM.

A short description of data set [1]: Bidirectional transport across the Caco-2 cell monolayer (LC/MS/MS). Particulars: human; for efflux ratio at 180 min, 10 µM / efflux ratio at 180 min, 25 µg/mL: Caco-2, Efflux ratio P BA/P AB; for efflux ratio at 180 min, 10 µM: as single compounds; for efflux ratio at 180 min, 25 µg/mL: in A. cinnamomea extract (25 µg/mL).
Data set [2] has as its system Caco-2 cell monolayer. Described as above. Particulars: for Efflux ratio P BA/P AB: as single compounds; for Efflux ratio P BA/P AB / permeability through the Caco-2 cell layer: 10 µM; for decrease of PBA in extract compared to the single form: extract versus single compound; for P app P BA: BL to AP; for permeability through the Caco-2 cell layer: pure compounds. For orientation: Passage across Caco-2 layers is used to estimate intestinal permeability.

For data set [3] the following is noted: cited from earlier work.
The next data set is described as follows: in vitro. Particulars: human; for Papp A→B at 180 min, 25 µg/mL (extract) / Papp B→A at 180 min, 25 µg/mL (extract): Caco-2; for efflux ratio at 180 min, 25 µg/mL: Caco-2, Efflux ratio P BA/P AB.
Data set [4] can be described thus: Leakage marker sodium fluorescein transport, AP to BL, Caco-2 monolayer integrity. Particulars: human. It is filed as in vitro ADME. The protocol: The integrity of cell monolayers was also assessed by the transport of the leakage marker sodium fluorescein. On day 21, the Caco-2 monolayers were rinsed twice with pre-warmed HBSS and were then incubated with the same solution at 37 °C for 30 min, on a shaker at 50 rpm. The fluorescein was pre-dissolved in 1 mM NaOH/H2O (1:10, v/v), and then diluted to 1 mM with an appropriate volume of HBSS. The sodium fluorescein and blank HBSS were added to the AP (0.5 mL) and BL side (1.5 mL), respectively. At 30, 60, 90, and 120 min, each 0.3 mL of the solution from BL side was collected, and replaced with an equal volume of HBSS. The sodium fluorescein intensity was determined with a Hitachi F-4500 fluorometer (excitation wavelength 490 nm, emission 525 nm).

Data set [5] concerns Caco-2 cell monolayer. Particulars: human.
The nature of data set [6]: Solubility (stated in words). Particulars: both in the extract and single forms (13 and 14).
Setting [7] is: in A. cinnamomea extract (25 µg/mL).

Entries after “also recorded” stand apart in the source; their conditions may differ. Where two headings read alike, the source gives them in different places. Where only a bound is given, the exact number is not on record here.

The text below walks through data of article PMC4607679, “Intestinal Absorption of Ergostane and Lanostane Triterpenoids from Antrodia cinnamomea Using Caco-2 Cell Monolayer Model” (Natural Products and Bioprospecting, 2015).

One may read the Papp B→A as the apparent permeability from the basolateral to the apical side of a cell layer. In general, efflux ratio refers to the permeability from basolateral to apical divided by that in the opposite direction, in the common usage.

Consider `C=C(CC[C@@H](C)[C@H]1CC[C@H]2C3=C(C(=O)C[C@]12C)[C@@]1(C)CCC(=O)[C@@H](C)[C@@H]1CC3=O)[C@@H](C)C(=O)O` [compound 10, 25R-antcin B], for which the “toxicity to the cells (MTS assay)” value in the data set with Caco-2 cultures is on record as “non-toxic”. Also, in data set [1] (Caco-2), the Papp A→B at 180 min, 10 µM was found to be 283 ± 43 nm/s; the Papp A→B at 180 min, 25 µg/mL (extract) was 411 ± 92 nm/s; the Papp B→A at 180 min, 10 µM stood at 585 ± 58 nm/s; the Papp B→A at 180 min, 25 µg/mL (extract) was found to be 386 ± 32 nm/s. In addition, in data set [1], the efflux ratio at 180 min, 10 µM was more than 2 and the efflux ratio at 180 min, 25 µg/mL was found to be 0.94. Also, in the data set on Caco-2 cell monolayer [2], the “Efflux ratio P BA/P AB” value is 2.07, the “decrease of PBA in extract compared to the single form” value (“decrease of PBA in extract” below) is 50–60% and the “permeability through the Caco-2 cell layer” value is reported as “could readily pass through; also recorded: high permeability”. The “P app P BA” value in the data set on Caco-2 cell monolayer [2] (setting [7]) was 3.0–3.8 ×10^−5 cm/s. Moreover, the “metabolites detected in the AP side” value in the data set on Caco-2 cell monolayer [2] (single compound 10 µM, 120 min (Fig. S2)) was “two hydrogenated metabolites”. Besides, the “plasma exposure” value in data set [3] (rats, after A. cinnamomea) was “much lower plasma concentrations”.

For the compound `C=C(CC[C@@H](C)[C@H]1CC[C@H]2C3=C(C(=O)[C@H](O)[C@]12C)[C@@]1(C)CC[C@@H](O)[C@@H](C)[C@@H]1CC3=O)[C@@H](C)C(=O)O` [compound 5, 25R-antcin H], the “toxicity to the cells (MTS assay)” value in the data set with Caco-2 cultures was “non-toxic”. In data set [1] (Caco-2), this compound came in with a Papp A→B at 180 min, 10 µM of 372 ± 44 nm/s; a Papp A→B at 180 min, 25 µg/mL (extract) of 395 ± 64 nm/s; a Papp B→A at 180 min, 10 µM of 841 ± 135 nm/s; a Papp B→A at 180 min, 25 µg/mL (extract) of 347 ± 36 nm/s. For the same compound, in data set [1], the efflux ratio at 180 min, 10 µM was more than 2 and the efflux ratio at 180 min, 25 µg/mL came to 0.88. Besides, in the data set on Caco-2 cell monolayer [2], the “Efflux ratio P BA/P AB” value is given as 2.26, the “decrease of PBA in extract” value is given as 50–60% and the “permeability through the Caco-2 cell layer” value was “could readily pass through; also recorded: high permeability”. Further, the “P app P BA” value in the data set with Caco-2 cell monolayer [2] (setting [7]) is reported as 3.0–3.8 ×10^−5 cm/s. In addition, the “plasma exposure” value in data set [3] (rats, after A. cinnamomea) is on record as “major plasma-exposed components”.

For `C=C(CC[C@@H](C)[C@H]1CC[C@H]2C3=C(C(=O)C[C@]12C)[C@@]1(C)CC[C@@H](O)[C@](C)(O)[C@@H]1C[C@@H]3O)[C@H](C)C(=O)O` [compound 1, 25S-antcin K], in “in vitro”, the Papp A→B at 180 min, 25 µg/mL (extract) turned out to be 780 ± 86 nm/s; the Papp B→A at 180 min, 25 µg/mL (extract) was 532 ± 31 nm/s; the efflux ratio at 180 min, 25 µg/mL was determined as 0.68. The “plasma exposure” value in data set [3] (rat, in vivo) is “major plasma-exposed components”.

Turning to `O=C1OC2(c3ccc(O)cc3Oc3cc(O)ccc32)c2ccccc21` [sodium fluorescein], in data set [4] (1 mM, day 21 monolayer, read-out: Papp value AP to BL side), the Papp A→B at 1 mM was less than 10 nm/s. The Papp A→B at 30 min, 1 mM in data set [4] (30 min) was determined as 7.98 ± 1.99 nm/s. The same compound registered a Papp A→B at 60 min, 1 mM in data set [4] (60 min) of 7.71 ± 1.44 nm/s. The compound further registered a Papp A→B at 90 min, 1 mM in data set [4] (90 min) of 7.65 ± 1.4 nm/s. In data set [4] (120 min), this compound returned a Papp A→B at 120 min, 1 mM of 7.08 ± 2.98 nm/s.

Regarding `CC(C)NCC(O)COc1cccc2ccccc12` (centres unmarked) [propranolol, reference compound], in data set [1] (Caco-2), the Papp A→B at 30 min turned out to be 351 ± 106 nm/s, the Papp A→B at 60 min was determined as 376 ± 45 nm/s, the Papp A→B at 90 min was 343 ± 46 nm/s and the Papp A→B at 120 min turned out to be 381 ± 34 nm/s. Also, the “PAB value of marker compound” value in the data set on Caco-2 cell monolayer [2] (marker compound, AP to BL (Table S5)) is 3.81 ± 0.34 × 10^−5 cm/s.

`C=C(CC[C@@H](C)[C@H]1CC[C@H]2C3=C(C(=O)C[C@]12C)[C@@]1(C)CC[C@@H](O)[C@](C)(O)[C@@H]1C[C@@H]3O)[C@@H](C)C(=O)O` [compound 2, 25R-antcin K] displayed a transport rate with Caco-2 cell monolayer [5] (Caco-2, 25 µg/mL) of 112%. In “in vitro”, the Papp A→B at 180 min, 25 µg/mL (extract) was 574 ± 27 nm/s; the Papp B→A at 180 min, 25 µg/mL (extract) turned out to be 448 ± 30 nm/s; the efflux ratio at 180 min, 25 µg/mL worked out at 0.78. Also, the “plasma exposure” value in data set [3] (rat, in vivo) is “major plasma-exposed components”.

In turn, `CC(C)=CCC[C@@H](C(=O)O)[C@H]1C[C@H](O)[C@@]2(C)C3=CC[C@H]4C(C)(C)[C@H](O)CC[C@]4(C)C3=CC[C@]12C` [compound 7, 3β,15α-dihydroxylanosta-7,9(11),24-triene-21-oic acid] had a transport rate in the data set with Caco-2 cell monolayer [5] (Caco-2, 180 min, 25 µg/mL) of 38.8%. Moreover, in “in vitro”, the Papp A→B at 180 min, 25 µg/mL (extract) is 374 ± 43 nm/s; the Papp B→A at 180 min, 25 µg/mL (extract) is 357 ± 38 nm/s; the efflux ratio at 180 min, 25 µg/mL was 0.96.

In data set [1] (Caco-2), `C=C(CC[C@@H](C)[C@H]1CC[C@H]2C3=C(C(=O)C[C@]12C)[C@@]1(C)CCC(=O)[C@@H](C)[C@@H]1C[C@@H]3O)[C@@H](C)C(=O)O` [compound 4, 25R-antcin C] registered a Papp A→B at 180 min, 25 µg/mL (extract) of 741 ± 190 nm/s and a Papp B→A at 180 min, 25 µg/mL (extract) of 513 ± 27 nm/s. Moreover, in data set [1], the efflux ratio at 180 min, 25 µg/mL worked out at 0.69. Moreover, the “plasma exposure” value in data set [3] (rats, after A. cinnamomea) was “much lower plasma concentrations”.

In data set [1] (Caco-2), `C=C(CC[C@@H](C)[C@H]1CC[C@H]2C3=C(C(=O)C[C@]12C)[C@@]1(C)CCC(=O)[C@@H](C)[C@@H]1CC3=O)[C@H](C)C(=O)O` [compound 9, 25S-antcin B] came in with a Papp A→B at 180 min, 25 µg/mL (extract) of 265 ± 53 nm/s and a Papp B→A at 180 min, 25 µg/mL (extract) of 276 ± 27 nm/s. Further, in data set [1], the efflux ratio at 180 min, 25 µg/mL was 1.04. The “plasma exposure” value in data set [3] (rats, after A. cinnamomea) was “much lower plasma concentrations”.

For `C=C(CC[C@@H](C)[C@H]1CC[C@H]2C3=C(C(=O)[C@H](O)[C@]12C)[C@@]1(C)CC[C@@H](O)[C@@H](C)[C@@H]1CC3=O)[C@H](C)C(=O)O` [compound 6, 25S-antcin H], in the data set with Caco-2 cultures, the “toxicity to the cells (MTS assay)” value is recorded as “non-toxic”. In addition, in data set [1] (Caco-2), the Papp A→B at 180 min, 10 µM is 314 ± 56 nm/s; the Papp B→A at 180 min, 10 µM came out at 920 ± 134 nm/s; the Papp B→A at 180 min, 25 µg/mL (extract) was determined as 305 ± 38 nm/s. Further, in data set [1], the efflux ratio at 180 min, 10 µM was more than 2 and the efflux ratio at 180 min, 25 µg/mL stood at 0.99. In the data set on Caco-2 cell monolayer [2], the “decrease of PBA in extract” value was 50–60% and the “permeability through the Caco-2 cell layer” value was “could readily pass through; also recorded: high permeability”. For the same compound, the “P app P AB” value in the data set with Caco-2 cell monolayer [2] (in A. cinnamomea extract (25 µg/mL), AP to BL) was 3.18 ± 0.34 ×10^−5 cm/s. In addition, the “P app P BA” value with Caco-2 cell monolayer [2] (setting [7]) is 3.0–3.8 ×10^−5 cm/s. Besides, the “plasma exposure” value in data set [3] (rats, after A. cinnamomea) is “major plasma-exposed components”.

Consider `C=C(CC[C@@H](C)[C@H]1CC[C@H]2C3=C(C(=O)C[C@]12C)[C@@]1(C)CCC(=O)[C@@H](C)[C@@H]1CC3)C(C)C(=O)O` (mixture of isomers) [compound 11, (R/S)-antcin A], for which, in the data set “in vitro”, the Papp A→B at 180 min, 25 µg/mL (extract) turned out to be 792 ± 42 nm/s; the Papp B→A at 180 min, 25 µg/mL (extract) is 479 ± 23 nm/s; the efflux ratio at 180 min, 25 µg/mL is 0.6.

In data set [1] (Caco-2), `C=C(CC[C@@H](C)[C@H]1CC[C@H]2C3=C(C(=O)C[C@]12C)[C@@]1(C)CCC(=O)[C@@H](C)[C@@H]1C[C@@H]3O)[C@H](C)C(=O)O` [compound 3, 25S-antcin C] showed a Papp A→B at 180 min, 25 µg/mL (extract) of 682 ± 59 nm/s and a Papp B→A at 180 min, 25 µg/mL (extract) of 499 ± 29 nm/s. The efflux ratio at 180 min, 25 µg/mL in data set [1] came to 0.73. The “plasma exposure” value in data set [3] (rats, after A. cinnamomea) is given as “much lower plasma concentrations”.

`C=C(CC[C@@H](C(=O)O)[C@H]1C[C@H](O)[C@@]2(C)C3=CC[C@H]4C(C)(C)[C@@H](O)CC[C@]4(C)C3=CC[C@]12C)C(C)C` [compound 8, dehydrosulphurenic acid]: the “solubility” value in data set [6] is on record as “very low”. The “permeability” value in the data set with Caco-2 cell monolayer [2] (both in the extract and single forms (13 and 14)) was “very low”; in the data set with Caco-2 cell monolayer [2] (in A. cinnamomea extract) it was “poor permeability”.
